Assay results as given in PubChem BioAssay AID2060605 (Molecular Pharmacology Branch, DTP, NCI, 2025).

System: 947758-054-R-J2-PDC spheroid growth, percent test/control
Assay: Anticancer human tumor 947758-054-R-J2-PDC patient-derived colon adenocarcinoma cell line growth inhibition [CLK]
Settings: spheroids with HUVEC and MSC; for IC50: curve of first compound; for viability, T/C: stronger effect = lower value
In short: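 Multi-cell-type spheroids combined patient-derived tumor cells with HUVEC endothelial cells and human mesenchymal stem cells. Paired agents were dosed in half-log steps down from about clinical Cmax, or from 10 microM where Cmax was unknown.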

[1] = second compound 0.0316 µM, first compound 0.0316 µM
[2] = second compound 0.0316 µM, first compound 0.1 µM
[3] = second compound 0.0316 µM, first compound 0.316 µM
[4] = second compound 0.0316 µM, first compound 1 µM
[5] = second compound 0.0316 µM, first compound 3.16 µM
[6] = second compound 0.0316 µM, first compound 10 µM
[7] = second compound 0.1 µM, first compound 0.0316 µM
[8] = second compound 0.1 µM, first compound 0.1 µM
[9] = second compound 0.1 µM, first compound 0.316 µM
[10] = second compound 0.1 µM, first compound 1 µM
[11] = second compound 0.1 µM, first compound 3.16 µM
[12] = second compound 0.1 µM, first compound 10 µM
[13] = second compound 0.316 µM, first compound 0.0316 µM
[14] = second compound 0.316 µM, first compound 0.1 µM
[15] = second compound 0.316 µM, first compound 0.316 µM
[16] = second compound 0.316 µM, first compound 1 µM
[17] = second compound 0.316 µM, first compound 3.16 µM
[18] = second compound 0.316 µM, first compound 10 µM
[19] = second compound 1 µM, first compound 0.0316 µM
[20] = second compound 1 µM, first compound 0.1 µM
[21] = second compound 1 µM, first compound 0.316 µM
[22] = second compound 1 µM, first compound 1 µM
[23] = second compound 1 µM, first compound 3.16 µM
[24] = second compound 1 µM, first compound 10 µM
[25] = second compound 3.16 µM, first compound 0.0316 µM
[26] = second compound 3.16 µM, first compound 0.1 µM
[27] = second compound 3.16 µM, first compound 0.316 µM
[28] = second compound 3.16 µM, first compound 1 µM
[29] = second compound 3.16 µM, first compound 3.16 µM
[30] = second compound 3.16 µM, first compound 10 µM
[31] = second compound 10 µM, first compound 0.0316 µM
[32] = second compound 10 µM, first compound 0.1 µM
[33] = second compound 10 µM, first compound 0.316 µM
[34] = second compound 10 µM, first compound 1 µM
[35] = second compound 10 µM, first compound 3.16 µM
[36] = second compound 10 µM, first compound 10 µM
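Also: spheroids exposed to compounds for one week before readout.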
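For viability, T/C in this document: 100% = DMSO vehicle control wells.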

Structure (SMILES): CC1(C)CCC(CN2CCN(c3ccc(C(=O)NS(=O)(=O)c4ccc(NCC5CCOCC5)c([N+](=O)[O-])c4)c(Oc4cnc5[nH]ccc5c4)c3)CC2)=C(c2ccc(Cl)cc2)C1 + CNC(=O)c1ccc(Nc2nc(OC3CCCC3)c3c(-c4ccc5nc(C)oc5c4)c[nH]c3n2)c(OC)c1
- IC50 (second compound 0.0316 µM): 2.89 µM
- IC50 (second compound 0.1 µM): 3.2 µM
- IC50 (second compound 0.316 µM): 2.44 µM
- IC50 (second compound 1 µM): 2.3 µM
- IC50 (second compound 3.16 µM): 0.751 µM
- IC50 (second compound 10 µM): 0.0352 µM
- viability, T/C [1]: 105%
- viability, T/C [2]: 80.1%
- viability, T/C [3]: 93.6%
- viability, T/C [4]: 94.4%
- viability, T/C [5]: 46.3%
- viability, T/C [6]: 1.33%
- viability, T/C [7]: 104%
- viability, T/C [8]: 113%
- viability, T/C [9]: 82.1%
- viability, T/C [10]: 94%
- viability, T/C [11]: 47.8%
- viability, T/C [12]: 0.8%
- viability, T/C [13]: 105%
- viability, T/C [14]: 85.2%
- viability, T/C [15]: 70.7%
- viability, T/C [16]: 76.8%
- viability, T/C [17]: 46.9%
- viability, T/C [18]: 1.58%
- viability, T/C [19]: 64.8%
- viability, T/C [20]: 56.7%
- viability, T/C [21]: 55.8%
- viability, T/C [22]: 68.5%
- viability, T/C [23]: 45.8%
- viability, T/C [24]: 0.6%
- viability, T/C [25]: 59.1%
- viability, T/C [26]: 33.4%
- viability, T/C [27]: 63.3%
- viability, T/C [28]: 48.4%
- viability, T/C [29]: 26.5%
- viability, T/C [30]: 2.21%
- viability, T/C [31]: 55%
- viability, T/C [32]: 42.5%
- viability, T/C [33]: 40.2%
- viability, T/C [34]: 42.3%
- viability, T/C [35]: 16.3%
- viability, T/C [36]: 2.68%

Structure (SMILES): CC1COCCN1c1cc(C2(S(C)(=N)=O)CC2)nc(-c2ccnc3[nH]ccc23)n1 (stereo unspecified) + CNC(=O)c1ccc(Nc2nc(OC3CCCC3)c3c(-c4ccc5nc(C)oc5c4)c[nH]c3n2)c(OC)c1
- IC50 (second compound 0.0316 µM): 3.05 µM
- IC50 (second compound 0.1 µM): 2.22 µM
- IC50 (second compound 0.316 µM): 1.82 µM
- IC50 (second compound 1 µM): 0.308 µM
- IC50 (second compound 3.16 µM): 0.196 µM
- IC50 (second compound 10 µM): < 0.0316 µM
- viability, T/C [1]: 95.8%
- viability, T/C [2]: 103%
- viability, T/C [3]: 114%
- viability, T/C [4]: 87%
- viability, T/C [5]: 49.7%
- viability, T/C [6]: 22.2%
- viability, T/C [7]: 110%
- viability, T/C [8]: 105%
- viability, T/C [9]: 91.6%
- viability, T/C [10]: 88.8%
- viability, T/C [11]: 32.8%
- viability, T/C [12]: 18.8%
- viability, T/C [13]: 90.5%
- viability, T/C [14]: 93%
- viability, T/C [15]: 71.8%
- viability, T/C [16]: 68%
- viability, T/C [17]: 36%
- viability, T/C [18]: 13.2%
- viability, T/C [19]: 72.4%
- viability, T/C [20]: 53.3%
- viability, T/C [21]: 48.5%
- viability, T/C [22]: 45.8%
- viability, T/C [23]: 22%
- viability, T/C [24]: 8.76%
- viability, T/C [25]: 66.8%
- viability, T/C [26]: 43.6%
- viability, T/C [27]: 47.2%
- viability, T/C [28]: 45.7%
- viability, T/C [29]: 19.3%
- viability, T/C [30]: 8.82%
- viability, T/C [31]: 50.7%
- viability, T/C [32]: 44.7%
- viability, T/C [33]: 40.5%
- viability, T/C [34]: 26.7%
- viability, T/C [35]: 15.1%
- viability, T/C [36]: 9.5%

Structure (SMILES): NC(=O)C(=Cn1cnc(-c2cc(C(F)(F)F)cc(C(F)(F)F)c2)n1)c1cncnc1 + CNC(=O)c1ccc(Nc2nc(OC3CCCC3)c3c(-c4ccc5nc(C)oc5c4)c[nH]c3n2)c(OC)c1
- IC50 (second compound 0.0316 µM): < 0.00949 µM
- IC50 (second compound 0.1 µM): < 0.00949 µM
- IC50 (second compound 0.316 µM): 0.0112 µM
- IC50 (second compound 1 µM): < 0.00949 µM
- IC50 (second compound 3.16 µM): < 0.00949 µM
- IC50 (second compound 10 µM): < 0.00949 µM
- viability, T/C (second compound 0.0316 µM, first compound 0.00949 µM): 46.7%
- viability, T/C (second compound 0.0316 µM, first compound 0.03 µM): 37.3%
- viability, T/C (second compound 0.0316 µM, first compound 0.0949 µM): 34.4%
- viability, T/C (second compound 0.0316 µM, first compound 0.3 µM): 33.6%
- viability, T/C (second compound 0.0316 µM, first compound 0.949 µM): 8.62%
- viability, T/C (second compound 0.0316 µM, first compound 3 µM): 2.27%
- viability, T/C (second compound 0.1 µM, first compound 0.00949 µM): 45.2%
- viability, T/C (second compound 0.1 µM, first compound 0.03 µM): 32.4%
- viability, T/C (second compound 0.1 µM, first compound 0.0949 µM): 25.6%
- viability, T/C (second compound 0.1 µM, first compound 0.3 µM): 22.8%
- viability, T/C (second compound 0.1 µM, first compound 0.949 µM): 4.68%
- viability, T/C (second compound 0.1 µM, first compound 3 µM): 0.78%
- viability, T/C (second compound 0.316 µM, first compound 0.00949 µM): 53.1%
- viability, T/C (second compound 0.316 µM, first compound 0.03 µM): 32.4%
- viability, T/C (second compound 0.316 µM, first compound 0.0949 µM): 15.1%
- viability, T/C (second compound 0.316 µM, first compound 0.3 µM): 11.8%
- viability, T/C (second compound 0.316 µM, first compound 0.949 µM): 3.26%
- viability, T/C (second compound 0.316 µM, first compound 3 µM): 0.42%
- viability, T/C (second compound 1 µM, first compound 0.00949 µM): 25.9%
- viability, T/C (second compound 1 µM, first compound 0.03 µM): 20.6%
- viability, T/C (second compound 1 µM, first compound 0.0949 µM): 12%
- viability, T/C (second compound 1 µM, first compound 0.3 µM): 3.56%
- viability, T/C (second compound 1 µM, first compound 0.949 µM): 1.32%
- viability, T/C (second compound 1 µM, first compound 3 µM): 0.36%
- viability, T/C (second compound 3.16 µM, first compound 0.00949 µM): 20.4%
- viability, T/C (second compound 3.16 µM, first compound 0.03 µM): 16.3%
- viability, T/C (second compound 3.16 µM, first compound 0.0949 µM): 10.9%
- viability, T/C (second compound 3.16 µM, first compound 0.3 µM): 1.11%
- viability, T/C (second compound 3.16 µM, first compound 0.949 µM): 0.26%
- viability, T/C (second compound 3.16 µM, first compound 3 µM): 0.36%
- viability, T/C (second compound 10 µM, first compound 0.00949 µM): 15.3%
- viability, T/C (second compound 10 µM, first compound 0.03 µM): 13.7%
- viability, T/C (second compound 10 µM, first compound 0.0949 µM): 5.14%
- viability, T/C (second compound 10 µM, first compound 0.3 µM): 0.42%
- viability, T/C (second compound 10 µM, first compound 0.949 µM): 0.28%
- viability, T/C (second compound 10 µM, first compound 3 µM): 0.34%
